Results published in ChEMBL document CHEMBL5576038, “Design of a novel long-acting dual GLP-1/GIP receptor agonist” (Bioorg Med Chem, 2024).
The source made the active and inactive calls. The calls are words filed in the database; no cut-off is given here. Where a SMILES comes first, the peptide text is derived from it. [ ]: non-standard residue; d: D form. The star is where a group is joined. X1 = N[C@@H](CCCCNC(=O)CC[C@H](NC(=O)CCCCCCCCCCCCCCCCCCC(=O)O)C(=O)O)C(=O)NCCCC[C@H](N)C(=O)N[C@@H](CCCCNC(=O)C*)C(=O)O; X2 = O=C(O)CCCCCCCCCCCCCCCCC(=O)NCCOCCOCC(=O)N[C@@H](CCC(=O)N[C@H](CCC(=O)N[C@H](CCCCNC(=O)C*)C(=O)O)C(=O)O)C(=O)O; Aib = CC(C)(N)C(=O)O

How the values were obtained:
Mus musculus [1] = assay: Hypoglycemic effect in male db/db mouse model assessed as reduction in body weight at 30 nmol/kg, sc administered every 3 days for 60 days and measured every 3 days; type: functional, organism-based; conditions: time 60.0 day
Mus musculus [2] = assay: Anti-obesity activity in male C57/B16 mouse model of diet-induced obesity assessed as reduction in body weight at 30 nmol/kg, sc administered every 3 days for 46 days and measured every 3 days relative to control; type: functional, organism-based; design: scale not given: the % may be the effect or the level left; conditions: time 46.0 day
Mus musculus [3] = assay: Hypoglycemic effect in male db/db mouse model assessed as reduction in HbA1c level at 30 nmol/kg, sc administered every 3 days for 60 days and measured on day 18, 31, 37, 52, 58 and 60 by auto-chemistry analyzer; type: functional, organism-based; conditions: time 60.0 day
Mus musculus [4] = assay: Increase in body weight in male ICR mouse at 30 nmol/kg, sc measured after 2 days; type: functional, organism-based; conditions: time 2.0 day
[5] = target: T1, Gastric inhibitory polypeptide receptor (Homo sapiens, UniProt P48546); assay: Agonist activity at human GIPR expressed in CHO cells assessed as increase in cAMP production incubated for 30 mins by Eu-cAMP tracer based microplate reader analysis; type: functional, cell-based
T1 sequence (P48546 whole entry): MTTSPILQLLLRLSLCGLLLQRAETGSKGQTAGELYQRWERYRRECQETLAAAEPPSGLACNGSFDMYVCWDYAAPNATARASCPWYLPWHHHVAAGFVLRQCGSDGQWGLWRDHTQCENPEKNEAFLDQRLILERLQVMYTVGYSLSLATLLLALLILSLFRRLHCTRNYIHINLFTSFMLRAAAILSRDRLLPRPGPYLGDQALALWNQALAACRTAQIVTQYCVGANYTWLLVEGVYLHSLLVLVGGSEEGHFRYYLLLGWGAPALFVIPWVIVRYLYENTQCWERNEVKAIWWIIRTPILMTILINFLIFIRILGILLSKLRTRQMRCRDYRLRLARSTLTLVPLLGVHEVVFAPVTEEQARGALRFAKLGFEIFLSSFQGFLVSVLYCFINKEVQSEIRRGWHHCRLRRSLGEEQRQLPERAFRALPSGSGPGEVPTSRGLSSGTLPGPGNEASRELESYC

Mus musculus [6] = assay: Glucose-lowering effect in male ICR mouse assessed as reduction in plasma glucose AUC (0 to 72 hrs) at 30 nmol/kg, sc pretreated for 71 hrs followed by […] administration and measured after 60 mins by oral glucose tolerance test; type: functional, organism-based
[7] = target: Glucagon-like peptide 1 receptor (Homo sapiens, UniProt P43220); assay: Agonist activity at human GLP-1R expressed in CHO cells assessed as increase in cAMP production incubated for 30 mins by Eu-cAMP tracer based microplate reader analysis; type: functional, cell-based
Chain of Glucagon-like peptide 1 receptor (P43220 whole entry): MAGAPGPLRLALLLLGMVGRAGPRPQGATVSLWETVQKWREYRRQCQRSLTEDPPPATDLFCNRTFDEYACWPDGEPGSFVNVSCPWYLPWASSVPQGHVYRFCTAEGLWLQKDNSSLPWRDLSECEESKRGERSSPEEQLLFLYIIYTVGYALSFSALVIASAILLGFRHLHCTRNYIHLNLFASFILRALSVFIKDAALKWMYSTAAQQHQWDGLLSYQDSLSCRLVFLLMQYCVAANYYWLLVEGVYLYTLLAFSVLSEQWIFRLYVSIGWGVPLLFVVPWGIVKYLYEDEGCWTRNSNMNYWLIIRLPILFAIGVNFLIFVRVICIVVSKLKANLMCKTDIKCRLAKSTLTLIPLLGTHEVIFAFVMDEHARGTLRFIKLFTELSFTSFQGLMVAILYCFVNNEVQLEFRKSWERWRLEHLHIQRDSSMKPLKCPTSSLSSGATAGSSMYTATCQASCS

[8] = AUC (0 to 168 hrs) in Beagle dog at 10 nmol/kg, sc administered as single dose and measured upto 168 hrs by LC-MS/MS analysis; type: ADME, organism-based, Canis lupus familiaris; conditions: in vivo
[9] = Elimination half life in Beagle dog at 10 nmol/kg, sc administered as single dose and measured upto 168 hrs by LC-MS/MS analysis; type: ADME, organism-based, Canis lupus familiaris; conditions: in vivo
[10] = Cmax in Beagle dog at 10 nmol/kg, sc administered as single dose and measured upto 168 hrs by LC-MS/MS analysis; type: ADME, organism-based, Canis lupus familiaris; conditions: in vivo
[11] = Tmax in Beagle dog at 10 nmol/kg, sc administered as single dose and measured upto 168 hrs by LC-MS/MS analysis; type: ADME, organism-based, Canis lupus familiaris; conditions: in vivo
Mus musculus [12] = assay: Anti-obesity activity in male C57/B16 mouse model of diet-induced obesity assessed as reduction in body weight at 10 nmol/kg, sc administered every 3 days for 46 days and measured every 3 days relative to control; type: functional; design: scale not given: the % may be the effect or the level left; conditions: time 46 day
Mus musculus [13] = assay: Hypoglycemic effect in male db/db mouse model assessed as reduction in food intake at 30 nmol/kg, sc administered every 3 days for 60 days and measured every 3 days; type: functional, organism-based; conditions: time 60.0 day
Mus musculus [14] = assay: Reduction in body weight in male ICR mouse at 30 nmol/kg, sc measured for 4 days; type: functional, organism-based; conditions: time 4.0 day
Mus musculus [15] = assay: Hypoglycemic effect in male db/db mouse model assessed as blood glucose level at 30 nmol/kg, sc administered every 3 days for 31 days and measured 72 hrs post each dose; type: functional, organism-based; conditions: time 31.0 day

In the case of SEMAGLUTIDE, the Activity (Mus musculus [1]) is reported as “inactive”, the Activity (Mus musculus [2]) is reported as 10% and the Activity (Mus musculus [3]) is reported as “Active”.
For `CC(C)C[C@H](NC(=O)[C@H](CC(C)C)NC(=O)[C@H](Cc1c[nH]c2ccccc12)NC(=O)[C@H](CCC(N)=O)NC(=O)[C@@H](NC(=O)[C@H](Cc1ccccc1)NC(=O)[C@H](CC(C)C)NC(=O)[C@H](CCCCN)NC(=O)[C@H](C)NC(=O)[C@H](C)NC(=O)[C@H](CCC(N)=O)NC(=O)[C@H](CSCC(=O)NCCCC[C@@H](NC(=O)CC[C@@H](NC(=O)CC[C@H](NC(=O)COCCOCCNC(=O)CCCCCCCCCCCCCCCCC(=O)O)C(=O)O)C(=O)O)C(=O)O)NC(=O)[C@H](CCC(=O)O)NC(=O)[C@H](CC(C)C)NC(=O)[C@H](Cc1ccc(O)cc1)NC(=O)[C@H](Cc1ccc(O)cc1)NC(=O)[C@H](CO)NC(=O)[C@H](Cc1ccc(O)cc1)NC(=O)[C@H](CC(=O)O)NC(=O)[C@H](CO)NC(=O)[C@@H](NC(=O)[C@H](Cc1ccccc1)NC(=O)[C@@H](NC(=O)CNC(=O)[C@H](CCC(=O)O)NC(=O)C(C)(C)NC(=O)[C@@H](N)Cc1ccc(O)cc1)[C@@H](C)O)[C@@H](C)O)C(C)C)C(=O)N[C@@H](C)C(=O)NCC(=O)NCC(=O)N1CCC[C@H]1C(=O)N[C@@H](CO)C(=O)N[C@@H](CO)C(=O)NCC(=O)N[C@@H](C)C(=O)N1CCC[C@H]1C(=O)N1CCC[C@H]1C(=O)N1CCC[C@H]1C(=O)N[C@@H](CO)C(N)=O` (H-Y[Aib]EGTFTSDYSYYLEC(X2)QAAKLFVQWLLAGGPSSGAPPPS-NH2), the Activity (Mus musculus [4]) was “Active”, the EC50 ([5]; cho) was 0.11 nM and the Activity (Mus musculus [6]) was “Active”. It also gave an EC50 ([7]; cho) of 0.14 nM.
With TIRZEPATIDE the AUC ([8]; sc, 168 h) was 35123 ng·h/mL, the “beta t1/2” value ([9]; sc, 168 h) was 93.8 h and the Cmax ([10]; sc, 168 h) was 344 ng/mL. It also gave a Tmax ([11]; sc, 168 h) of 14 h.
In the case of `CC(C)C[C@H](NC(=O)[C@H](CC(C)C)NC(=O)[C@H](Cc1c[nH]c2ccccc12)NC(=O)[C@H](CCC(N)=O)NC(=O)[C@@H](NC(=O)[C@H](Cc1ccccc1)NC(=O)[C@H](CC(C)C)NC(=O)[C@H](CSCC(=O)NCCCC[C@H](NC(=O)[C@@H](N)CCCCNC(=O)[C@@H](N)CCCCNC(=O)CC[C@H](NC(=O)CCCCCCCCCCCCCCCCCCC(=O)O)C(=O)O)C(=O)O)NC(=O)[C@H](C)NC(=O)[C@H](C)NC(=O)[C@H](CCC(N)=O)NC(=O)[C@H](CCCCN)NC(=O)[C@H](CCC(=O)O)NC(=O)[C@H](CC(C)C)NC(=O)[C@H](Cc1ccc(O)cc1)NC(=O)[C@H](Cc1ccc(O)cc1)NC(=O)[C@H](CO)NC(=O)[C@H](Cc1ccc(O)cc1)NC(=O)[C@H](CC(=O)O)NC(=O)[C@H](CO)NC(=O)[C@@H](NC(=O)[C@H](Cc1ccccc1)NC(=O)[C@@H](NC(=O)CNC(=O)[C@H](CCC(=O)O)NC(=O)C(C)(C)NC(=O)[C@@H](N)Cc1ccc(O)cc1)[C@@H](C)O)[C@@H](C)O)C(C)C)C(=O)N[C@@H](C)C(=O)NCC(=O)NCC(=O)N1CCC[C@H]1C(=O)N[C@@H](CO)C(=O)N[C@@H](CO)C(=O)NCC(=O)N[C@@H](C)C(=O)N1CCC[C@H]1C(=O)N1CCC[C@H]1C(=O)N1CCC[C@H]1C(=O)N[C@@H](CO)C(N)=O` (H-Y[Aib]EGTFTSDYSYYLEKQAAC(X1)LFVQWLLAGGPSSGAPPPS-NH2), the Activity (Mus musculus [12]) is reported as 21%, the Activity (Mus musculus [1]) is reported as “Active” and the EC50 [5] is reported as 0.06 nM. The AUC(0-t) at 168 h ([8]; Beagle) was 23700 ng·h/mL, the Activity (Mus musculus [13]) was “Active” and the Activity (Mus musculus [14]) was “Active”. For the same compound, the half-life ([9]; Beagle, read-out: beta t1/2 (converted)) was 78.3 h, the Activity (Mus musculus [6]) was “Active” and the Activity (Mus musculus [3]) was “Active”. For the same compound, the Cmax ([10]; Beagle, read-out: Cmax) was 215 ng/mL, the EC50 [7] was 0.18 nM and the Activity (Mus musculus [15]) was “Active”. For the same compound, the Tmax ([11]; Beagle, read-out: Tmax) was 18.7 h.
